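How tested: cells in 96-well plates exposed to compound for 48 hours at five concentrations. GI50: concentration for 50% inhibition of growth.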 Calls of active or inactive are those of the source. Rule as the data show it: active = GI50 up to about 1.1 µM and inactive = higher.

Test systems include A549; CCRF-CEM; DU-145; EKVX; HCC 2998; HCT-116; HL-60; MDA-MB-231; MDA-MB-435; Malme-3M; NCI-H23; NCI-H522; OVCAR-4; SF-268; SF-295; SK-MEL-28; SNB-19; T47D; UO-31.
Common to all, as to assay: growth of human tumour cells (NCI), 48 h

On to `COc1cc2nc(-c3ccccc3)cc(O)c2c(OC)c1OC`, for which the GI50 in the assay on A549, in the assay with CCRF-CEM, in the assay with DU-145, with EKVX, with HCC 2998 and in the assay with HCT-116 was > 100 µM (inactive) throughout. Moreover, the GI50 was > 100 µM (inactive) in the assay with HL-60; 61 µM (inactive) in the assay on MDA-MB-231; > 100 µM (inactive) with MDA-MB-435; > 100 µM (inactive) with Malme-3M; > 100 µM (inactive) with NCI-H23; > 100 µM (inactive) in the assay on NCI-H522. In addition, the GI50 was > 100 µM (inactive) with OVCAR-4; > 100 µM (inactive) in the assay with SF-268; > 100 µM (inactive) in the assay on SF-295; > 100 µM (inactive) in the assay with SK-MEL-28; > 100 µM (inactive) in the assay with SNB-19; 34.1 µM (inactive) with T47D. The GI50 in the assay with UO-31 is 98.4 µM (inactive).
For the compound `CC(=O)OCC1OC(O[C@@H]2C[C@H]3C(C)(C)[C@H](OC(C)=O)CC[C@]3(C)[C@H]3CC[C@@]45C[C@H](O)C[C@H](C)[C@@H]4CC=C5[C@@]32C)C(O)C(O)C1O` (stereo partly specified), the GI50 is 4.59 µM (inactive) in the assay with A549; 2.81 µM (inactive) in the assay with CCRF-CEM; 8.28 µM (inactive) with DU-145; 7.69 µM (inactive) with EKVX; 2.03 µM (inactive) in the assay on HCC 2998; 2.08 µM (inactive) in the assay on HCT-116. In addition, the GI50 is 1.84 µM (inactive) with HL-60; 2.39 µM (inactive) in the assay with MDA-MB-231; 3.27 µM (inactive) in the assay on MDA-MB-435; 6.92 µM (inactive) in the assay with Malme-3M; 4.56 µM (inactive) in the assay with NCI-H23; 2.72 µM (inactive) in the assay with NCI-H522. Also, the GI50 was 4.21 µM (inactive) in the assay on OVCAR-4; 4.01 µM (inactive) in the assay with SF-268; 3.66 µM (inactive) with SF-295; 7.19 µM (inactive) in the assay on SK-MEL-28; 4.02 µM (inactive) in the assay with SNB-19; 3.43 µM (inactive) with T47D. In the assay with UO-31, the GI50 is 13.1 µM (inactive).
In the case of `O=C1C(N2CCOCC2)=C(Cl)C(=O)c2ncccc21`, the GI50 was > 10 µM (inactive) in the assay on A549; 0.524 µM (active) in the assay with CCRF-CEM; > 6.73 µM (inactive) in the assay with DU-145; > 10 µM (inactive) with EKVX; > 6 µM (inactive) in the assay on HCC 2998; 1.71 µM (inactive) in the assay on HCT-116. For the same compound, the GI50 was 0.212 µM (active) in the assay on HL-60; 2.49 µM (inactive) with MDA-MB-231; 1.73 µM (inactive) in the assay on MDA-MB-435; 1.89 µM (inactive) in the assay on Malme-3M; 1.6 µM (inactive) in the assay on NCI-H23; 1.45 µM (inactive) in the assay with NCI-H522. Moreover, the GI50 in the assay on OVCAR-4 was 1.56 µM (inactive); in the assay on SF-268, 2.9 µM (inactive); in the assay on SF-295 it was > 10 µM (inactive); in the assay on SK-MEL-28, 2.2 µM (inactive); in the assay on SNB-19 it was > 10 µM (inactive); with T47D, 1.99 µM (inactive). Besides, the GI50 in the assay with UO-31 was 4.23 µM (inactive).
As for `CCCCCCc1nn2c(-c3ccncc3)nnc2s1`, the GI50 in the assay on A549, with CCRF-CEM, with DU-145, in the assay with EKVX, in the assay on HCC 2998 and with HCT-116 was > 10 µM (inactive) throughout. The GI50 in the assay with HL-60, with MDA-MB-231, in the assay with MDA-MB-435, with Malme-3M, with NCI-H23 and in the assay with NCI-H522 was > 10 µM (inactive) each time. Further, the GI50 in the assay with OVCAR-4, with SF-268, in the assay with SF-295, in the assay on SK-MEL-28, in the assay with SNB-19 and in the assay on T47D was > 10 µM (inactive) each time. For the same compound, in the assay with UO-31, the GI50 is 1.42 µM (inactive).

The values above are taken from ChEMBL document CHEMBL1201862, “PubChem BioAssay data set” (2004).
